Source: patent US12416034B2, “Recombinant production of steviol glycosides” (EVOLVA SA, priority 2011, dated 2025)

Experiments:
[1] = test system: ERG9; assay: Amorphadiene production (indirect FPP accumulation), GC-MS; assay type: cell-based, S. cerevisiae; settings: 72 h, construct in front of ERG9
From the text: DNA fragments encompassing an ERG9 promoter upstream sequence (for homologous recombination), an expression cassette for the gene (NatR) that confers resistance to Nourseothricin, a CYC1 promoter (SEQ ID NO: 185, FIG. 21), a 5′ UTR sequence with a stemloop structure, and an ERG9 ORF sequence (for homologous recombination) were generated by PCR. DNA fragments that contained either the CYC1 promoter or the KEX2 promoter (SEQ ID NO: 186) but no stemloops were also generated as controls. The flanking ERG9 sequences for recombination as well as the stemloop structure were introduced via the PCR oligos. The DNA fragments were transformed into an S. cerevisiae host strain that subsequently was selected on nourseothricin containing growth plates. […]
The Amorpha-4,11-diene Synthase (ADS) gene catalyzes the chemical reaction that turns one FPP molecule into Amorpha-4,11-diene in the plant Artemisia annua. […] Amorpha-4,11-diene production was measured and compared to the standard compound caryophyllene, as described by (Ro et al. 2006. Nature 440(7086):940-943; Paradise et al. Biotechnol Bioeng. 2008 Jun. 1; 100(2):371-8; Newman et al. Biotechnol Bioeng 95(4):684-691).
Engineered yeast strains were grown in SC 2% glucose with uracil dropped out. […] 10 μl of the dodecane layer was sampled and diluted 100 fold in ethyl acetate for quantification by GC-MS […]

[2] = In vitro assay of lysates of EUGT11-expressing cells after permeabilization treatment; assay type: biochemical, S. cerevisiae; settings: lysates of EUGT11 transformants, untreated or after LiAC/PEG, Triton X100 or LS treatment
Procedure: Experiments were done to establish conditions for permeabilization in E. coli and in yeast. Growing cells (S. cerevisiae or E. coli) were treated with different concentrations/combinations of permeabilization agents: toluene, chloroform and ethanol for permeabilization of S. cerevisiae, and guanidine, lactic acid, DMSO and/or Triton X-100 for permeabilization of E. coli. Tolerance of both model organisms to high concentrations of RebA and other potential substrates also was evaluated. The permeabilization was measured by the amount of RebD produced from a EUGT11-expressing organism after incubation in a RebA containing medium (feeding experiment). Enzyme activity was monitored before and after exposure to the permeabilizing agents by lysing the cells and analyzing the activity of the released UGTs in an in vitro assay.
Treatment with Triton X-100 0.3% or 0.5%, however, increased the amount of RebD above background levels (see FIG. 18) while sustaining the activity of EUGT11. For Triton X-100 assays, overnight cultures were washed three times in PBS buffer. Cells corresponding to 6 OD600 units were resuspended in PBS containing 0.3% or 0.5% Triton X-100 respectively. […]
Lysates from transformants expressing EUGT11 were able to convert some RebA into RebD (8 to 50 μM were measured in the reactions) when cells were untreated or after treatment with LiAC/PEG or Triton X100.

[3] = UDP-glucose regenerating activity of sucrose synthase; assay type: biochemical; settings: 1 mM UDP, ~200 mM sucrose, 37° C., 24 h
Procedure: Experiments were performed to evaluate the UDP-glucose regenerating activity of the purified GST-AtSUS1 and GST-SrSUS1. In vitro assays were conducted in 100 mM Tris-HCl pH=7.5 and 1 mM UDP (final concentration). Either ˜2.4 μg of purified GST-AtSUS1, ˜0.15 μg of GST-SrSUS1, or ˜1.5 μg commercial BSA (New England Biolabs, Ipswich, MA) were also added. Reactions were done in presence or absence of ˜200 mM sucrose and incubated at 37° C. for 24 h. Product UDP-glucose was measured by HPLC as described in the analytical section. AtSUS1 produced ˜0.8 mM UDP-glucose when sucrose was present. […] The lack of activity observed for SrSUS1 could be explained by the poor quality and concentration of the purified enzyme. UDP-glucose production by AtSUS1 was sucrose dependent and, therefore, it was concluded that AtSUS1 can be used in a coupled reaction to regenerate the UDP-glucose used by EUGT1 or other UGTs for small molecule glycosylation (FIG. 11, above).

[4] = Coupled AtSUS/EUGT11 reaction, RebD formation; assay type: biochemical; settings: ~200 mM sucrose, 1 mM UDP, 100 μM RebA, GST-AtSUS1 and GST-EUGT11
Procedure: SUS catalyzes the formation of UDP-glucose and fructose from sucrose and from UDP as depicted in FIG. 11. This UDP-glucose then can be used by EUGT11 for glycosylation of RebA to produce RebD. In vitro assays as described above were performed, adding ˜200 mM sucrose, 1 mM UDP, 100 μM RebA, ˜1.6 μg purified GST-AtSUS1 and ˜0.8 μg GST-EUGT11. Formation of product, RebD, was evaluated by LC-MS. When AtSUS, EUGT11, sucrose and UDP were mixed with RebA, 81±5 μM of RebD was formed. The reaction was dependent on the presence of AtSUS, EUGT11 and sucrose. The conversion rate was similar to what has been observed previously using UDP-glucose provided extraneously.

[5] = test system: Saccharomyces cerevisiae EFSC1923; assay: Steviol 19-O-monoside production in EFSC1923 with plasmid-expressed enzymes; assay type: cell-based; settings: shake flask, co-expressed with KAH-3
Procedure: The 150 nucleotides at the 5′ end of the Zea mays CDP synthase coding sequence in Table 15 (SEQ ID NO:157, see FIG. 14) was deleted, the remainder of the coding sequence was provided with a new translation start ATG, and the truncated sequence was operably linked to the GPD1 promoter in the multicopy plasmid p423GPD in Saccharomyces cerevisiae EFSC1923. Plasmid p423GPD is described in Mumberg, D et al, Gene, 156: 119-122(1995). EFSC1923 and EFSC1923 plus p423GPD-Z.m.tCDPS were grown in for 96 hours in selective yeast medium containing 4% glucose. The amount of steviol 19-O-monoside produced by EFSC1923+p423GPD-Z.m.tCDPS (the truncated Zea mays CDPS) under these conditions was approximately 2.5 fold more than that produced by EFSC1923 without the plasmid.
The Arabidopsis thaliana KAH coding sequence from Table 15 was inserted in a multicopy plasmid designated p426GPD, under the control of the GPD1 promoter. Plasmid p426GPD is described in Mumberg, D et al, Gene. 156: 119-122(1995).
EFSC1923 was transformed with both p423GPD-Z.m.tCDPS and p426 p426GPD-A.t.KAH.
A bifunctional CDPS-KS from Gibberella fujikuroi (NCBI Accession no: Q9UVY5.1, FIG. 15) was cloned and compared to the truncated CDPS-5. […]

Question: For “SEQ ID NO: 181: heterologous insert TGAATTCGTTAACGAATTC behind the CYC1 promoter in front of ERG9 (expressed or natural sequence)”, which “increased production of amorphadiene” value [1] is on record?
Answer: The value was 2.5 ×.

Question: With `CCCCCCCCCCCCN(C)CC(=O)O` [LS, N-lauryl sarcosine] as the molecule, how does the “RebD measured in reactions of lysates” value [2] read?
Answer: The value was “no RebD was measured”.

Question: What does the source list for “AtSUS1: A. thaliana SUS1 sucrose synthase”?
Answer: UDP-glucose produced [3]: ~0.8 mM; RebD formed [4]: 81 ± 5 µM

B1: bifunctional CDPS-KS: bifunctional CDPS-KS from Gibberella fujikuroi, NCBI Accession no Q9UVY5.1 (protein, listed as Gibberella fujikuroi)
chain: MPGKIENGTPKDLKTGNDFVSAAKSLLDRAFKSHHSYYGLCSTSCQVYDTAWVAMIPKTRDNVKQWLFPECFHYLLKTQAADGSWGSLPTTQTAGILDTASAVLALLCHAQEPLQILDVSPDEMGLRIEHGVTSLKRQLAVWNDVEDTNHIGVEFIIPALLSMLEKELDVPSFEFPCRSILERMHGEKLGHFDLEQVYGKPSSLLHSLEAFLGKLDFDRLSHHLYHGSMMASPSSTAAYLIGATKWDDEAEDYLRHVMRNGAGHGNGGISGTFPTTHFECSWIIATLLKVGFTLKQIDGDGLRGLSTILLEALRDENGVIGFAPRTADVDDTAKALLALSLVNQPVSPDIMIKVFEGKDHFTTFGSERDPSLTSNLHVLLSLLKQSNLSQYHPQILKTTLFTCRWWWGSDHCVKDKWNLSHLYPTMLLVEAFTEVLHLIDGGELSSLFDESFKCKIGLSIFQAVLRIILTQDNDGSWRGYREQTCYAILALVQARHVCFFTHMVDRLQSCVDRGFSWLKSCSFHSQDLTWTSKTAYEVGFVAEAYKLAALQSASLEVPAATIGHSVTSAVPSSDLEKYMRLVRKTALFSPLDEWGLMASIIESSFFVPLLQAQRVEIYPRDNIKVDEDKYLSIIPFTWVGCNNRSRTFASNRWLYDMMYLSLLGYQTDEYMEAVAGPVFGDVSLLHQTIDKVIDNTMGNLARANGTVHSGNGHQHESPNIGQVEDTLTRFTNSVLNHKDVLNSSSSDQDTLRREFRTFMHAHITQIEDNSRFSKQASSDAFSSPEQSYFQWVNSTGGSHVACAYSFAFSNCLMSANLLQGKDAFPSGTQKYLISSVMRHATNMCRMYNDFGSIARDNAERNVNSIHFPEFTLCNGTSQNLDERKERLLKIATYEQGYLDRALEALERQSRDDAGDRAGSKDMRKLKIVKLFCDVTDLYDQLYVIKDLSSSMK
Question: With B1 as the molecule, how does the “activity in producing steviol 19-O-monoside relative to EFSC1923 with the KAH-3 alone” value [5] read?
Answer: Its value is “about 5.8 times”.
